One series deals with HL-60. As to the kind of experiment: Cytotoxicity against human HL60 cells. It counts as cell-based.
In the next series the test system is A549. The experiment in a line: Cytotoxicity against human A549 cells. The format is cell-based.
Series [1] deals with T1, Tyrosine-protein phosphatase non-receptor type 1 (Homo sapiens, UniProt P18031).
T1 sequence (P18031 whole entry): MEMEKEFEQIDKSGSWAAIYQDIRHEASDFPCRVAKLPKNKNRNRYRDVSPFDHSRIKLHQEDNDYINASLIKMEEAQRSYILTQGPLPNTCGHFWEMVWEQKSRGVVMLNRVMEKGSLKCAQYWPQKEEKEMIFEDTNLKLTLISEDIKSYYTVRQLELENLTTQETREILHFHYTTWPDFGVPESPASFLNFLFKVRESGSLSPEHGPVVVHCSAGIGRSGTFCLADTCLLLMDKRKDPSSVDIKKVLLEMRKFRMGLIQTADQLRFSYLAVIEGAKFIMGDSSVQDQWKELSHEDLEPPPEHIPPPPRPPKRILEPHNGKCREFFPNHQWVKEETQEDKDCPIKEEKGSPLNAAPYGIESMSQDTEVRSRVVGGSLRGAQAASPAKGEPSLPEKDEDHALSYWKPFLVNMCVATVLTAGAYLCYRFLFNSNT
As to the kind of experiment: Inhibition of human recombinant PTP1B-mediated pNPP hydrolysis.

By IC50 is commonly meant the concentration at which inhibition is half-maximal.

In the case of `COC(=O)/C1=C\C=C(\C(C)C)CC/C(C)=C/CC/C(C)=C/CC1`, the Activity result in the series with HL-60 and in the series with A549 was “Non-toxic” in each case. In addition, the IC50 in series [1] is 5.95 µM.

As for `COC(=O)/C1=C\CC[C@]2(C)O[C@H]2CC/C(C(=O)OC)=C/C=C(/C(C)C)CC1`, the Activity entry in the series with HL-60 and with A549 was “Non-toxic” in each case. Also, the IC50 in series [1] was at least 53.1 µM.

Regarding `COC(=O)/C1=C\C=C(\C(C)C)CC/C(C(=O)O)=C/CC[C@]2(C)O[C@H]2CC1`, the Activity entry in the series with HL-60 and with A549 was “Non-toxic” in each case. The IC50 in series [1] is at least 55.2 µM.

With `COC(=O)/C1=C\CC[C@](C)(O)[C@H](O)CC/C(C(=O)OC)=C\C=C(/C(C)C)CC1`, the Activity entry with HL-60 and in the series with A549 was “Non-toxic” throughout. The IC50 in series [1] is at least 50.7 µM.

Turning to `CC(=O)O[C@@H]1C/C(C)=C/C/C=C(/C)CC(=O)CC2=C[C@@H](OC2=O)[C@@H]1C(C)C`, the Activity result with HL-60 and in the series with A549 was “Non-toxic” in each case. The IC50 in series [1] was at least 53.4 µM.

For `C/C1=C\C=C(\C(C)C)CC/C(C)=C/CC/C(C)=C/CC1`, the Activity result with HL-60 and in the series with A549 was “Non-toxic” each time. Moreover, the IC50 in series [1] was found to be 26.6 µM.

As to `CC(=O)O[C@@H]1C/C(C)=C/CCC(C)CC(=O)CC2=C[C@@H](OC2=O)[C@@H]1C(C)C` (stereo partly drawn), the Activity entry in the series on HL-60 and in the series with A549 was “Non-toxic” each time. Besides, the half-maximal inhibitory concentration (IC50) in series [1] is at least 53.1 µM.

Turning to `C/C1=C/C=C(/C(C)C)CCC2=CCC[C@](C)(OC2=O)C(=O)CC1`, the Activity result in the series with HL-60 and in the series with A549 was “Non-toxic” throughout. In addition, the IC50 in series [1] was determined as 15.4 µM.

Take `CC(C)=C1C/C=C(\C)CC/C=C(\C)CC/C=C(\C)CC1`: the Activity entry in the series with HL-60 and with A549 was “Non-toxic” throughout. Also, the IC50 in series [1] was at least 73.4 µM.

Regarding `COC(=O)/C1=C\C=C(\C(C)C)CCC2=CCC[C@](C)(OC2=O)C(=O)CC1` [KETOEMBLIDE], the Activity result in the series with HL-60 and in the series on A549 was “Non-toxic” each time. For the same compound, the IC50 in series [1] turned out to be 27.2 µM.

`COC(=O)/C1=C/C=C(/C(C)C)CCC2=CCC[C@](C)(OC2=O)C(=O)CC1` [SARCRASSIN E]: the Activity entry in the series on HL-60 and with A549 was “Non-toxic” each time. Besides, the IC50 in series [1] was found to be 6.33 µM.
